{
  "source": "patent US9630931B2",
  "about": "“Pharmaceutically active pyrazine derivatives” (Sentinel Oncology Limited, priority 2011, dated 2017)",
  "key": {"[1]": {"molecular_target": "Chk-1 kinase (Homo sapiens (Human), UniProt O14757)", "sequence (O14757 whole entry)": "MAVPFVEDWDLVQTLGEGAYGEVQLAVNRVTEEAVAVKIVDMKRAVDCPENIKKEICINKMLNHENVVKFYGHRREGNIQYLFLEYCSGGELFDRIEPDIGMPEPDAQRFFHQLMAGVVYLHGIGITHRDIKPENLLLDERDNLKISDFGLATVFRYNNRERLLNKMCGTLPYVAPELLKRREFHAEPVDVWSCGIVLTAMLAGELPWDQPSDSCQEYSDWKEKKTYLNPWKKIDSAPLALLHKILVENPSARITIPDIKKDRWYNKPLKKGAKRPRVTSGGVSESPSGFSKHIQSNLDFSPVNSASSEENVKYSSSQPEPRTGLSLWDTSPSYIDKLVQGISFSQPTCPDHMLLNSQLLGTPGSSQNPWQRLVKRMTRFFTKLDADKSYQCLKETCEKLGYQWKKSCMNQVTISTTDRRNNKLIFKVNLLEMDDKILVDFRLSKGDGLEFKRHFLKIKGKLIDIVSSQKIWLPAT", "assay": "Chk-1 kinase inhibiting activity (33P-ATP radiometric filter assay, CHKtide substrate)", "format": "biochemical", "details": "recombinant full length GST-tagged CHK-1 0.5 nM, CHKtide 20 μM, 120 minutes at room temperature; read-out: IC50 against Chk-1 kinase", "procedure": "The compounds of the invention were tested for activity against Chk-1 kinase using the materials and protocols set out below.\nBase Reaction buffer: 20 mM Hepes (pH 7.5), 10 mM MgCl2, 1 mM EGTA, 0.02% Brij35, 0.02 mg/ml BSA, 0.1 mM Na3VO4, 2 mM DTT, 1% DMSO\nRequired cofactors are added individually to each kinase reaction\n(i) Prepare indicated substrate in freshly prepared Base Reaction Buffer\n(ii) Deliver any required cofactors to the substrate solution above\n(iii) Deliver indicated kinase into the substrate solution and gently mix\n(iv) Deliver compounds in DMSO into the kinase reaction mixture\n(v) Deliver ^33P-ATP (specific activity 0.01 μCi/μl final) into the reaction mixture to initiate the reaction.\n(vi) Incubate kinase reaction for 120 minutes at room temperature\n(vii) Reactions are spotted onto P81 ion exchange paper (Whatman #3698-915)\n(viii) Wash filters extensively in 0.1% phosphoric acid.\n(ix) Dry filters and measure counts in scintillation counter\nRecombinant full length construct, N-terminal GST tagged, purified from insect cells.\nNo special measures were taken to activate this kinase.\nFinal concentration in assay=0.5 nM\nPeptide sequence: [[…]]\nFinal concentration in assay=20 μM\nNo additional cofactors are added to the reaction mixture\nFrom the results obtained by following the above protocol, the IC50 values against Chk-1 kinase of a number of the compounds of the Examples were determined and these are shown in Table 3."}, "[2]": {"test_system": "MOLM-13 cells", "assay": "Inhibition of cell growth in MOLM-13 cells (Alamar blue, 72 h)", "format": "cell-based", "details": "Homo sapiens, 72 h incubation", "procedure": "(§1) Studies were carried out to test the effect of compounds on the inhibition of cell growth in MOLM-13 and MV4-11 cells.\n(§2) The following protocol was used:\n(§3) (a) Cells were seeded in 96-well plates at cell densities of 2500/well (MOLM-13) and 10,000/well (MV4-11). Cells were then incubated overnight prior to addition of compound or vehicle control.\n(§4) (b) Test compounds were prepared from 10 mM DMSO stocks to give a final concentration range of 10 μM, 3 μM, 1 μM, 0.3 μM, […], 0.03 μM, 0.01 μM, […] vehicle control. The DMSO content was constant at 0.1%.\n(§5) (c) Test compounds were incubated with the cells for 72 h at 37° C. 5% CO2 in a humidified atmosphere.\n(§6) (d) Alamar blue 10% (v/v) was then added and incubated for a further 4 h, and fluorescent product detected using the BMG FLUOstar plate reader.\n(§7) (e) Media only background values were subtracted and the data analysed using a 4-parameter logistic equation in GraphPad Prism."}, "[3]": {"test_system": "MV4-11 cells", "assay": "Inhibition of cell growth in MV4-11 cells (Alamar blue, 72 h)", "format": "cell-based", "details": "Homo sapiens, 72 h incubation", "procedure": "as §1, §2, §3, §4, §5, §6, §7"}, "[4]": {"test_system": "thirty ovarian cancer cell lines", "details": "cited from earlier work"}, "[5]": {"test_system": "triple negative negative breast cancer cells", "details": "cited from earlier work"}, "[6]": {"test_system": "MYC oncogene driven murine spontaneous cancer model", "details": "cited from earlier work"}},
  "note": "pIC50: −log10 of the molar value. Where a name gives a salt, the structure may show the parent alone.",
  "data": [
    {"smiles": "COc1cc(CCN[C@@H](C)C2CCN(S(C)(=O)=O)CC2)c(Cl)cc1NC(=O)Nc1cnc(C#N)cn1", "note": "[Example 11, 1-(5-Chloro-4-{2-[(S)-1-(1-methanesulfonyl-piperidin-4-yl)-ethylamino]-ethyl}-2-methoxy-phenyl)-3-(5-cyano-pyrazin-2-yl)-urea hydrochloride]", "values": [
      {"measurement": "pIC50", "setting": "[1]", "result": 9.55},
      {"measurement": "pIC50", "setting": "[2]", "result": 7.23},
      {"measurement": "pIC50", "setting": "[3]", "result": 6.64}
    ]},
    {"smiles": "COc1cc(CCNCCN2CCOCC2)c(Cl)cc1NC(=O)Nc1cnc(C#N)cn1", "note": "[Example 7, 1-{5-Chloro-2-methoxy-4-[2-(2-morpholin-4-yl-ethylamino)-ethyl]-phenyl}-3-(5-cyano-pyrazin-2-yl)-urea hydrochloride]", "values": [
      {"measurement": "pIC50", "setting": "[1]", "result": 9.10},
      {"measurement": "pIC50", "setting": "[2]", "result": 6.95},
      {"measurement": "pIC50", "setting": "[3]", "result": 6.53}
    ]},
    {"smiles": "Cn1cc(-c2[nH]c3cc(NC(=O)[C@H](N)C4CCCCC4)cc4c3c2C=NNC4=O)cn1", "note": "[PF-00477736]", "values": [
      {"measurement": "growth of ovarian cancer cell lines", "setting": "[4]", "result": "inhibits the growth"},
      {"measurement": "growth of triple negative breast cancer cells", "setting": "[5]", "result": "inhibits the growth"},
      {"measurement": "single agent activity in MYC oncogene driven murine spontaneous cancer model", "setting": "[6]", "result": "selective single agent activity"}
    ]},
    {"smiles": "COc1cc(CCN[C@@H](C)C2CCN(C(=O)C3CC3)CC2)c(Cl)cc1NC(=O)Nc1cnc(C#N)cn1", "note": "[Example 10, 1-(5-Chloro-4-{2-[(S)-1-(1-cyclopropane-carbonyl-piperidin-4-yl)-ethylamino]-ethyl}-2-methoxy-phenyl)-3-(5-cyano-pyrazin-2-yl)-urea hydrochloride]", "values": [
      {"measurement": "pIC50", "setting": "[1]", "result": 9.19},
      {"measurement": "pIC50", "setting": "[2]", "result": 7.46},
      {"measurement": "pIC50", "setting": "[3]", "result": 7.10}
    ]}
  ]
}
